Among the data in PubChem BioAssay AID248 (DTP/NCI, 2004) are T/C values, retold here.

For this test, the system named is L1210 leukemia ip in BDF1 mice, survival T/C. Nature of the test: NCI In Vivo Anticancer Drug Screen. Data for tumor model L1210 Leukemia (intraperitoneal) in B6D2F1 (BDF1) mice. The following applies: endpoint: mean survival time, higher = longer survival. Put shortly: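 Transplantable tumor model; survival measured in treated vs vehicle control mice. Value = treated/control.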

Setting [1] is: dose: 100.0 mg/kg/injection, schedule: Q04DX003 (ip), vehicle: saline.
The mark [2] stands for this setting: dose: 200.0 mg/kg/injection, schedule: Q04DX003 (ip), vehicle: saline.
The mark [3] stands for this setting: dose: 400.0 mg/kg/injection, schedule: Q04DX003 (ip), vehicle: saline.

Each structure is given as a SMILES string. Several values for one entry are separate records, joined by “and”; a condition that tells them apart may be missing. Equal values may be shown once. Toxic doses and inconclusive results are not listed.

In the case of `CC(=O)OC1CC2CC1C1C=CCC21` (stereo unspecified), the T/C (dose: 50.0 mg/kg/injection, schedule: Q01DX009 (ip), vehicle: saline with Tween-80) is 88 % of control; the T/C (dose: 100.0 mg/kg/injection, schedule: Q01DX009 (ip), vehicle: saline with Tween-80) is 86 % of control; the T/C (dose: 100.0 mg/kg/injection, schedule: Q04DX003 (ip), vehicle: saline sonified) was 94 % of control; the T/C (dose: 200.0 mg/kg/injection, schedule: Q04DX003 (ip), vehicle: saline sonified) was 89 % of control.
In the case of `CONC(N)=O`, the T/C (dose: 100.0 mg/kg/injection, schedule: Q01DX Z (ip), vehicle: carboxymethylcellulose (CMC)) is 100 % of control; the T/C (dose: 200.0 mg/kg/injection, schedule: Q01DX Z (ip), vehicle: carboxymethylcellulose (CMC)) is 98 % of control; the T/C (dose: 350.0 mg/kg/injection, schedule: Q01DX Z (ip), vehicle: carboxymethylcellulose (CMC)) is 100 % of control and 101 % of control; the T/C (dose: 500.0 mg/kg/injection, schedule: Q01DX Z (ip), vehicle: carboxymethylcellulose (CMC)) was 98 % of control; the T/C (dose: 750.0 mg/kg/injection, schedule: Q01DX Z (ip), vehicle: carboxymethylcellulose (CMC)) is 98 % of control.
In the case of `OC1(C#CC#CC2(O)CCCCC2)CCCCC1`, the T/C runs as follows: under setting [1], 92 % of control; under setting [2], 98 % of control; under setting [3], 93 % of control.
Regarding `CCCC(NC(=O)C(C)N)C(=O)O` (stereo unspecified), the T/C runs as follows: (dose: 12.5 mg/kg/injection, schedule: Q04DX002 (ip), vehicle: saline) 105 % of control; (dose: 25.0 mg/kg/injection, schedule: Q04DX002 (ip), vehicle: saline) 102 % of control; (dose: 50.0 mg/kg/injection, schedule: Q04DX002 (ip), vehicle: saline) 102 % of control.
In the case of `CC(C)C1(O)C=CC(C)(O)CC1` (stereo unspecified), the T/C by setting is: under setting [1], 102 % of control; under setting [2], 102 % of control; under setting [3], 107 % of control.
Take `Cc1c(O)ccc(=O)n1O`: the T/C (dose: 10.4 mg/kg/injection, schedule: Q03HX024 (ip), vehicle: Klucel (hydroxypropylcellulose) (HPC)) was 97 % of control; the T/C (dose: 12.0 mg/kg/injection, schedule: Q01DX009 (ip), vehicle: Klucel (hydroxypropylcellulose) (HPC)) is 107 % of control; the T/C (dose: 15.6 mg/kg/injection, schedule: Q03HX024 (ip), vehicle: Klucel (hydroxypropylcellulose) (HPC)) is 96 % of control; the T/C (dose: 22.8 mg/kg/injection, schedule: Q03HX024 (ip), vehicle: Klucel (hydroxypropylcellulose) (HPC)) was 93 % of control; the T/C (dose: 24.0 mg/kg/injection, schedule: Q01DX009 (ip), vehicle: Klucel (hydroxypropylcellulose) (HPC)) was 102 % of control; the T/C (dose: 34.8 mg/kg/injection, schedule: Q03HX024 (ip), vehicle: Klucel (hydroxypropylcellulose) (HPC)) is 98 % of control. Further, the T/C is 107 % of control (dose: 48.0 mg/kg/injection, schedule: Q01DX009 (ip), vehicle: Klucel (hydroxypropylcellulose) (HPC)); 109 % of control (dose: 49.0 mg/kg/injection, schedule: Q01DX Z (ip), vehicle: carboxymethylcellulose (CMC)); 100 % of control and 110 % of control (dose: 49.0 mg/kg/injection, schedule: Q01DX Z (ip), vehicle: methylcellulose (MC)); 103 % of control (dose: 52.0 mg/kg/injection, schedule: Q01DX009 (ip), vehicle: Klucel (hydroxypropylcellulose) (HPC)); 100 % of control and 105 % of control (dose: 52.0 mg/kg/injection, schedule: Q03HX024 (ip), vehicle: Klucel (hydroxypropylcellulose) (HPC)); 92 % of control (dose: 62.0 mg/kg/injection, schedule: Q03HX024 (ip), vehicle: saline with Tween-80). Moreover, the T/C (dose: 73.0 mg/kg/injection, schedule: Q01DX Z (ip), vehicle: carboxymethylcellulose (CMC)) was 111 % of control; the T/C (dose: 73.0 mg/kg/injection, schedule: Q01DX Z (ip), vehicle: methylcellulose (MC)) is 93 % of control; the T/C (dose: 89.0 mg/kg/injection, schedule: Q01DX001 (ip), vehicle: carboxymethylcellulose (CMC)) was 106 % of control; the T/C (dose: 96.0 mg/kg/injection, schedule: Q03HX024 (ip), vehicle: Klucel (hydroxypropylcellulose) (HPC)) was 100 % of control; the T/C (dose: 100.0 mg/kg/injection, schedule: Q01DX001 (ip), vehicle: carboxymethylcellulose (CMC)) was 113 % of control; the T/C (dose: 100.0 mg/kg/injection, schedule: Q01DX001 (ip), vehicle: saline) is 112 % of control. Moreover, the T/C is, setting by setting: (dose: 100.0 mg/kg/injection, schedule: Q01DX009 (ip), vehicle: Klucel (hydroxypropylcellulose) (HPC)) 115 % of control; (dose: 100.0 mg/kg/injection, schedule: Q04DX003 (ip), vehicle: acetone) 108 % of control; (dose: 104.0 mg/kg/injection, schedule: Q01DX001 (ip), vehicle: Klucel (hydroxypropylcellulose) (HPC)) 103 % of control; (dose: 104.0 mg/kg/injection, schedule: Q04DX003 (ip), vehicle: Klucel (hydroxypropylcellulose) (HPC)) 95 % of control; (dose: 110.0 mg/kg/injection, schedule: Q01DX Z (ip), vehicle: carboxymethylcellulose (CMC)) 151 % of control; (dose: 110.0 mg/kg/injection, schedule: Q01DX Z (ip), vehicle: methylcellulose (MC)) 94 % of control. Moreover, the T/C is, setting by setting: (dose: 110.0 mg/kg/injection, schedule: Q01DX Z (ip), vehicle: saline) 102 % of control; (dose: 125.0 mg/kg/injection, schedule: Q03HX024 (ip), vehicle: saline with Tween-80) 102 % of control; (dose: 156.0 mg/kg/injection, schedule: Q01DX001 (ip), vehicle: Klucel (hydroxypropylcellulose) (HPC)) 97 % of control; (dose: 156.0 mg/kg/injection, schedule: Q04DX003 (ip), vehicle: Klucel (hydroxypropylcellulose) (HPC)) 103 % of control; (dose: 165.0 mg/kg/injection, schedule: Q01DX Z (ip), vehicle: carboxymethylcellulose (CMC)) 152 % of control; (dose: 165.0 mg/kg/injection, schedule: Q01DX Z (ip), vehicle: methylcellulose (MC)) 122 % of control. Further, the T/C is 104 % of control (dose: 165.0 mg/kg/injection, schedule: Q01DX Z (ip), vehicle: saline); 112 % of control (dose: 200.0 mg/kg/injection, schedule: Q01DX001 (ip), vehicle: carboxymethylcellulose (CMC)); 107 % of control (dose: 200.0 mg/kg/injection, schedule: Q01DX001 (ip), vehicle: saline); 108 % of control (dose: 200.0 mg/kg/injection, schedule: Q01DX009 (ip), vehicle: Klucel (hydroxypropylcellulose) (HPC)); 107 % of control (dose: 200.0 mg/kg/injection, schedule: Q04DX003 (ip), vehicle: acetone); 101 % of control (dose: 228.0 mg/kg/injection, schedule: Q01DX001 (ip), vehicle: Klucel (hydroxypropylcellulose) (HPC)). For the same compound, the T/C was 98 % of control (dose: 228.0 mg/kg/injection, schedule: Q04DX003 (ip), vehicle: Klucel (hydroxypropylcellulose) (HPC)); 112 % of control (dose: 300.0 mg/kg/injection, schedule: Q01DX001 (ip), vehicle: carboxymethylcellulose (CMC)); 108 % of control (dose: 348.0 mg/kg/injection, schedule: Q01DX001 (ip), vehicle: Klucel (hydroxypropylcellulose) (HPC)); 104 % of control (dose: 348.0 mg/kg/injection, schedule: Q04DX003 (ip), vehicle: Klucel (hydroxypropylcellulose) (HPC)); 111 % of control (dose: 400.0 mg/kg/injection, schedule: Q01DX001 (ip), vehicle: carboxymethylcellulose (CMC)); 104 % of control (dose: 400.0 mg/kg/injection, schedule: Q01DX001 (ip), vehicle: saline). Moreover, the T/C is 104 % of control (dose: 400.0 mg/kg/injection, schedule: Q01DX009 (ip), vehicle: Klucel (hydroxypropylcellulose) (HPC)); 103 % of control (dose: 400.0 mg/kg/injection, schedule: Q04DX003 (ip), vehicle: acetone); 106 % of control (dose: 520.0 mg/kg/injection, schedule: Q01DX001 (ip), vehicle: Klucel (hydroxypropylcellulose) (HPC)).
For `CC(CO)[CH2][Sn]([c]1ccccc1)([c]1ccccc1)[c]1ccccc1` (stereo unspecified), the T/C is, setting by setting: (dose: 100.0 mg/kg/injection, schedule: Q04DX002 (ip), vehicle: saline with Tween-80) 98 % of control and 101 % of control; (dose: 200.0 mg/kg/injection, schedule: Q04DX002 (ip), vehicle: saline with Tween-80) 98 % of control; (dose: 400.0 mg/kg/injection, schedule: Q04DX002 (ip), vehicle: saline with Tween-80) 95 % of control and 98 % of control.
For the compound `O=C(c1ccccc1)C1CNCCC1(O)c1ccccc1` (stereo unspecified), the T/C reads like this: (dose: 75.0 mg/kg/injection, schedule: Q01DX001 (ip), vehicle: saline) 104 % of control; (dose: 75.0 mg/kg/injection, schedule: Q04DX003 (ip), vehicle: acetone) 101 % of control; (dose: 150.0 mg/kg/injection, schedule: Q01DX001 (ip), vehicle: saline) 95 % of control; (dose: 150.0 mg/kg/injection, schedule: Q04DX003 (ip), vehicle: acetone) 91 % of control; (dose: 300.0 mg/kg/injection, schedule: Q01DX001 (ip), vehicle: saline) 116 % of control.
